{"source": "paper PMC2911657", "about": "(The Journal of Cell Biology, 2010)", "key": {"[1]": {"molecular_target": "human AURORA B1–344–INCENP835–903 complex (Homo sapiens, UniProt Q96GD4)", "sequence (Q96GD4 whole entry)": "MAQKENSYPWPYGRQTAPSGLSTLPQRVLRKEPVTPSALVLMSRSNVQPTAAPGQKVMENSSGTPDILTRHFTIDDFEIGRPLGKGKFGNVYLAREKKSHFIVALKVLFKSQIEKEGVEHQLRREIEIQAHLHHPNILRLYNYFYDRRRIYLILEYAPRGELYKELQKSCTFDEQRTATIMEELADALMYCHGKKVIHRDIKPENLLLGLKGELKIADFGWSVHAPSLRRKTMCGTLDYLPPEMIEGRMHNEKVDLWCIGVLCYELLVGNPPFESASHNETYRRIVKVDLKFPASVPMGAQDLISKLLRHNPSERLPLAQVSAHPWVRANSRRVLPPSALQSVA", "sequence (Q9NQS7 835-903 partner limits assumed)": "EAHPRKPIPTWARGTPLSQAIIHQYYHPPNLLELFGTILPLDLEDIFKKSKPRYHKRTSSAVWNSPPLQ", "assay": "In vitro kinase assay on AURORA B–INCENP complex, substrate histone H3", "format": "biochemical"}, "MPS1 [2]": {"molecular_target": "T1, MPS1 (Homo sapiens, UniProt P33981)", "T1 sequence (P33981 1-857)": "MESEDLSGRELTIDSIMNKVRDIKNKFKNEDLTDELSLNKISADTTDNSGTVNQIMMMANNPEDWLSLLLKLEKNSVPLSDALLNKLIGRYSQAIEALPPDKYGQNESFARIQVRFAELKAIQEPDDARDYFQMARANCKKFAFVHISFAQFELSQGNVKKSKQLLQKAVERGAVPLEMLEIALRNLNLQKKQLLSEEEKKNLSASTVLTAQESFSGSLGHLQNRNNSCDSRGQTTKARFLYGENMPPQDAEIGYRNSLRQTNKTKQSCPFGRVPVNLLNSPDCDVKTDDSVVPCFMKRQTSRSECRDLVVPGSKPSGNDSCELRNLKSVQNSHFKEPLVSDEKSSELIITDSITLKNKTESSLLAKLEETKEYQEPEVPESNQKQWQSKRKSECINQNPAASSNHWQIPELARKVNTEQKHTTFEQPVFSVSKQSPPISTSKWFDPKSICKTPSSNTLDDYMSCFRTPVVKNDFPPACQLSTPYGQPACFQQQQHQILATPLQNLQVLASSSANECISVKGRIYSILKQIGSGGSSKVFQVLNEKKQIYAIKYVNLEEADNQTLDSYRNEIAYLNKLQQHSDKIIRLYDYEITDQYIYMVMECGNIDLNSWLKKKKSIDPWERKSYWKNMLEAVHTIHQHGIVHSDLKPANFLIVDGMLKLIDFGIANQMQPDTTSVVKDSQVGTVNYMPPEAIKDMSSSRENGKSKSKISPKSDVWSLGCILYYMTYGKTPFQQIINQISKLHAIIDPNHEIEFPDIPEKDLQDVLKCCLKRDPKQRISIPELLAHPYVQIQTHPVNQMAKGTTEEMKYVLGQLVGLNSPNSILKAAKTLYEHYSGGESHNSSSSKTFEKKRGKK", "assay": "In vitro kinase assay on MPS1", "format": "biochemical", "details": "for MPS1 inhibition in vitro: 1 µM"}, "HeLa cells [3]": {"tested_on": "HeLa cells", "assay": "Spindle checkpoint: duration of mitotic arrest, time-lapse video microscopy", "format": "cell-based, human"}, "[4]": {"tested_on": "P-S10-H3 (AURORA B substrate)", "assay": "P-S10-H3 levels by Western blotting in mitotic HeLa cell lysates", "format": "cell-based, human"}, "HeLa cells [5]": {"tested_on": "HeLa cells", "assay": "Cytokinesis, time-lapse experiment", "format": "cell-based, human"}, "HeLa cells [6]": {"tested_on": "HeLa cells", "assay": "Chromosome congression / alignment, immunofluorescence", "format": "cell-based, human", "details": "100 µM"}, "BUB1": {"tested_on": "BUB1", "assay": "In vitro kinase assay on BUB1", "format": "biochemical, human"}, "[7]": {"tested_on": "P-S7–CENP-A (AURORA B substrate)", "assay": "Kinetochore P-S7–CENP-A levels, immunofluorescence", "format": "cell-based, human"}, "MPS1 [8]": {"molecular_target": "T1, MPS1", "assay": "Kinetochore localization of MPS1, immunofluorescence", "format": "cell-based", "details": "0.5 µM; nocodazole"}, "[9]": {"tested_on": "ROD, ZWILCH, ZW10, SPINDLY, MAD1", "assay": "Kinetochore localization of RZZ, SPINDLY and MAD1, immunofluorescence", "format": "cell-based, human"}, "MAD2": {"tested_on": "MAD2", "details": "100 nM hesperadin, ref Yang et al., 2009, cited from earlier work"}, "CDK1–CYCLIN B": {"tested_on": "CDK1–CYCLIN B", "details": "1 µM"}, "HASPIN": {"tested_on": "HASPIN", "details": "1 µM"}, "NEK2A": {"tested_on": "NEK2A", "details": "1 µM"}, "PLK1": {"tested_on": "PLK1", "details": "1 µM"}, "PRP4": {"tested_on": "PRP4", "details": "1 µM"}, "TAO1": {"tested_on": "TAO1", "details": "1 µM"}, "HeLa cells [10]": {"tested_on": "HeLa cells", "details": "concentrations up to 10 µM; MG132"}, "HeLa cells [11]": {"tested_on": "HeLa cells", "details": "cold treatment"}, "HeLa cells [12]": {"tested_on": "HeLa cells"}, "AURORA B": {"tested_on": "AURORA B", "details": "HeLa cells"}, "MAPKs": {"tested_on": "MAPKs", "details": "1 µM; ref D’Alise et al., 2008; cited from earlier work"}}, "note": "Entries after “also recorded” stand apart in the source; their conditions may differ. Read-outs that look alike come from different tables or passages of the source."}
{"smiles": "Oc1c2ccccc2c2c3c(cccc13)N=N2", "note": "[SP600125]", "values": [{"measurement": "IC50 for AURORA B compared with IC50 for MPS1", "setting": "[1]", "result": "significantly lower"}, {"measurement": "IC50", "setting": "MPS1 [2]", "result": "~2.5", "unit": "µM"}]}
{"smiles": "N#CC(=C(/N)Sc1ccccc1N)/C(C#N)=C(/N)Sc1ccccc1N", "note": "[U0126]", "values": [{"measurement": "effect on duration of the spindle checkpoint", "setting": "HeLa cells [3]; 10 µM", "result": "does not affect the duration of the spindle checkpoint"}]}
{"smiles": "COc1cc2c(Nc3ccc(NC(=O)c4ccccc4)cc3)ncnc2cc1OCCCN1CCOCC1", "note": "[ZM447439]", "values": [{"measurement": "MPS1 inhibition in vitro", "setting": "MPS1 [2]", "result": "did not inhibit"}, {"measurement": "concentration inhibiting P-S10-H3", "setting": "[4]; Western blotting", "result": "≤ 500", "unit": "nM"}, {"measurement": "concentration range in which cytokinesis is impaired", "setting": "HeLa cells [5]; time-lapse", "result": "0.1 to 0.5", "unit": "µM"}]}
{"smiles": "Cc1ccc2c(c1)C(=O)C1(O)CCN(c3ccccc3)C1=N2", "note": "(stereo not drawn) [blebbistatin]", "values": [{"measurement": "effect on chromosome alignment", "setting": "HeLa cells [6]", "result": "did not cause any evident effects; also recorded: does not cause evident perturbations"}, {"measurement": "ability of mitotic HeLa cells to maintain a nocodazole-mediated arrest", "setting": "HeLa cells [3]; unpublished data", "result": "did not significantly affect"}]}
{"smiles": "CCS(=O)(=O)Nc1ccc2c(c1)/C(=C(/Nc1ccc(CN3CCCCC3)cc1)c1ccccc1)C(=O)N2", "note": "[hesperadin]", "values": [{"measurement": "MPS1 inhibition in vitro", "setting": "MPS1 [2]", "result": "failed to observe significant MPS1 (and BUB1) inhibition"}, {"measurement": "BUB1 inhibition in vitro", "setting": "BUB1; 1 µM hesperadin", "result": "failed to observe significant MPS1 (and BUB1) inhibition"}, {"measurement": "cells with impaired cytokinesis", "setting": "HeLa cells [5]; 5–10 nM range", "result": 100, "unit": "%"}, {"measurement": "P-S7–CENP-A antigen", "setting": "[7]; 100 nM", "result": "invisible"}, {"measurement": "MPS1 kinetochore staining", "setting": "MPS1 [8]", "result": "prevented kinetochore localization"}, {"measurement": "MAD1 and RZZ complex at kinetochores", "setting": "[9]; 0.5–1.0 µM, high concentrations of nocodazole, unpublished data", "result": "lost from kinetochores"}, {"measurement": "MAD2 at kinetochores", "setting": "MAD2; high nocodazole (3.2 µM)", "result": "retained on kinetochores"}, {"measurement": "MAD2 at kinetochores", "setting": "MAD2; low nocodazole concentrations", "result": "absent from kinetochores"}]}
{"smiles": "c1nc2nc(Nc3ccc(N4CCOCC4)cc3)nc(NC3CCCCC3)c2[nH]1", "note": "[reversine]", "values": [{"measurement": "effect on BUB1 kinase activity", "setting": "BUB1; 1 µM", "result": "failed to alter the activity"}, {"measurement": "effect on P-S10-H3", "setting": "[4]; 0.5 µM", "result": "no effects"}, {"measurement": "effect on cytokinesis", "setting": "HeLa cells [5]; 0.5 µM", "result": "does not significantly inhibit"}, {"measurement": "effect on cytokinesis", "setting": "HeLa cells [5]; 1 µM", "result": "unaffected"}, {"measurement": "kinetochore levels of P–CENP-A", "setting": "[7]; up to 5 µM, nocodazole", "result": "not influenced; also recorded: unaltered"}, {"measurement": "spindle checkpoint in the presence of Taxol, STLC or BI2536", "setting": "HeLa cells [3]; 500 nM Taxol, 10 µM STLC or BI2536", "result": "caused an override of the checkpoint"}, {"measurement": "kinetochore localization of ROD, ZWILCH, ZW10, SPINDLY and MAD1", "setting": "[9]; 0.5 µM reversine, 330 nM nocodazole, MG132", "result": "largely evicted from kinetochores"}, {"measurement": "MAD1 localization to kinetochores", "setting": "[9]; nocodazole 0.33 or 3.3 µM", "result": "failed to localize to kinetochores"}, {"measurement": "effect on CDK1–CYCLIN B kinase activity", "setting": "CDK1–CYCLIN B", "result": "failed to alter the activity"}, {"measurement": "effect on HASPIN kinase activity", "setting": "HASPIN", "result": "failed to alter the activity"}, {"measurement": "effect on NEK2A kinase activity", "setting": "NEK2A", "result": "failed to alter the activity"}, {"measurement": "effect on PLK1 kinase activity", "setting": "PLK1", "result": "failed to alter the activity"}, {"measurement": "effect on PRP4 kinase activity", "setting": "PRP4", "result": "failed to alter the activity"}, {"measurement": "effect on TAO1 kinase activity", "setting": "TAO1", "result": "failed to alter the activity"}, {"measurement": "inhibition of spindle bipolarization", "setting": "HeLa cells [10]", "result": "did not inhibit"}, {"measurement": "inhibition of kinetochore fiber formation", "setting": "HeLa cells [11]", "result": "did not inhibit"}, {"measurement": "effect on centrosome duplication", "setting": "HeLa cells [12]", "result": "failed to see an effect"}, {"measurement": "kinetochore localization of AURORA B", "setting": "AURORA B", "result": "unaffected"}, {"measurement": "inhibition of MAPKs", "setting": "MAPKs", "result": "not significantly inhibited"}]}
{"smiles": "COC[C@H]1OC(=O)c2coc3c2[C@@]1(C)C1=C(C3=O)[C@@H]2CCC(=O)[C@@]2(C)C[C@H]1OC(C)=O", "note": "[wortmannin]", "values": [{"measurement": "effect on duration of the spindle checkpoint", "setting": "HeLa cells [3]; 100 nM", "result": "does not affect the duration of the spindle checkpoint"}]}
